Test results published in US9302999B2, “Substituted triazoles as herbicides” (E. I. DU PONT DE NEMOURS AND COMPANY, priority 2012, dated 2016).
Like-named read-outs stand apart in the source and are kept apart here.

Columns and labels:
Type in all cases: in vivo
[1] = test system: foxtail, giant (giant foxtail, Setaria faberii); assay: Test A pre-/postemergence: foxtail, giant; conditions: Setaria faberi, 240 h; for pest or weed control at 125 g/ha: 125 g ai/ha; for pest or weed control at 500 g/ha: 500 g ai/ha
Procedure, shortened: (§1)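 Soil medium was loam blended with sand; treatments pre- and postemergence were applied concurrently, postemergence at one- to two-leaf stage. Approximately ten days in greenhouse preceded visual comparison with untreated controls, scored 0 (no effect) to 100 (complete control).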

[2] = test system: velvetleaf (Abutilon theophrasti); assay: Test A pre-/postemergence: velvetleaf; conditions: Abutilon theophrasti, 240 h; for pest or weed control at 125 g/ha: 125 g ai/ha; for pest or weed control at 500 g/ha: 500 g ai/ha
Procedure, shortened: as §1

[3] = test system: lambsquarters (Chenopodium album); assay: Test C pre-/postemergence: lambsquarters; conditions: Postemergence
Procedure, shortened: (§2)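 Preemergence on seeds in loam/sand, postemergence on 2–18 cm (1–4-leaf) plants in peat-based medium; compounds in non-phytotoxic solvent with surfactant. After 13–15 days in greenhouse, visual rating versus controls, 0 (no effect) to 100 (complete control).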

[4] = test system: blackgrass (Alopecurus myosuroides); assay: Test C pre-/postemergence: blackgrass
Procedure, shortened: as §2

wild oat (Avena fatua) = assay: Test C pre-/postemergence: wild oat
From the text: Seeds of plant species selected from blackgrass (Alopecurus myosuroides), bromegrass, downy (downy bromegrass, Bromus tectorum), foxtail, green (green foxtail, Setaria viridis), ryegrass, Italian (Italian ryegrass, Lolium multiflorum), winter wheat (Triticum aestivum), wild oat (Avena fatua), galium (catchweed bedstraw, Galium aparine), bermudagrass (Cynodon dactylon), surinam grass (Brachiaria decumbens), cocklebur (common cocklebur, Xanthium strumarium), corn (Zea mays), large crabgrass (Digitaria sanguinalis), woolly cupgrass (Eriochloa villosa), foxtail, giant (giant foxtail, Setaria faberii), goosegrass (Eleusine indica), johnsongrass (Sorghum halepense), kochia (Kochia scoparia), lambsquarters (Chenopodium album), morningglory (Ipomoea coccinea), nightshade (eastern black nightshade, Solanum ptycanthum), nutsedge, yellow (yellow nutsedge, Cyperus esculentus), pigweed (Amaranthus retroflexus), ragweed (common ragweed, Ambrosia elation), soybean (Glycine max), common (oilseed) sunflower (Helianthus annuus), Russian thistle (Salsola kali) and velvetleaf (Abutilon theophrasti) were planted into a blend of loam soil and sand and treated preemergence with test chemicals formulated in a non-phytotoxic solvent mixture which included a surfactant.
(§3) At the same time, plants selected from these crop and weed species and also barley (winter barley, Hordeum vulgare), canarygrass (Phalaris minor), chickweed (common chickweed, Stellaria media) windgrass (Apera spica-venti) and deadnettle (henbit deadnettle, Lamium amplexicaule) were planted in pots containing Redi-Earth® planting medium (Scotts Company, 14111 Scottslawn Road, Marysville, Ohio 43041) comprising spaghnum peat moss, vermiculite, wetting agent and starter nutrients and treated with postemergence applications of test chemicals formulated in the same manner. Plants ranged in height from 2 to 18 cm (1- to 4-leaf stage) for postemergence treatments.
(§4) Treated plants and controls were maintained in a greenhouse for 13 to 15 days, after which time all species were compared to controls and visually evaluated. Plant response ratings, summarized in Table C, are based on a scale of 0 to 100 where 0 is no effect and 100 is complete control. A dash (-) response means no test result.

[5] = test system: pigweed (Amaranthus retroflexus); assay: Test A pre-/postemergence: pigweed; conditions: Amaranthus retroflexus, 240 h; for pest or weed control at 125 g/ha: 125 g ai/ha; for pest or weed control at 500 g/ha: 500 g ai/ha
Procedure, shortened: as §1

[6] = test system: barnyardgrass (Echinochloa crus-galli); assay: Test A pre-/postemergence: barnyardgrass; conditions: Echinochloa crus-galli, 240 h; for pest or weed control at 125 g/ha: 125 g ai/ha; for pest or weed control at 500 g/ha: 500 g ai/ha
Procedure, shortened: as §1

[7] = test system: chickweed (common chickweed, Stellaria media); assay: Test C postemergence: chickweed
From the text: as §3, §4

[8] = test system: nutsedge, yellow (yellow nutsedge, Cyperus esculentus); assay: Test C pre-/postemergence: nutsedge, yellow; conditions: Postemergence
Procedure, shortened: as §2

corn (Zea mays) = assay: Test C pre-/postemergence: corn; conditions: Postemergence
Procedure, shortened: as §2

[9] = test system: winter wheat (Triticum aestivum); assay: Test C pre-/postemergence: winter wheat
Procedure, shortened: as §2

[10] = test system: morningglory (Ipomoea coccinea); assay: Test C pre-/postemergence: morningglory; conditions: Postemergence
Procedure, shortened: as §2

[11] = 31 g ai/ha, scale 0 to 100 (0 no effect, 100 complete control)
[12] = 62 g ai/ha, scale 0 to 100 (0 no effect, 100 complete control)
[13] = 125 g ai/ha, scale 0 to 100, 0 no effect, 100 complete control
[14] = Postemergence, 31 g ai/ha, scale 0 to 100 (0 no effect, 100 complete control)
[15] = Postemergence, 62 g ai/ha, scale 0 to 100 (0 no effect, 100 complete control)
[16] = Postemergence, 125 g ai/ha, scale 0 to 100, 0 no effect, 100 complete control
[17] = Postemergence, 250 g ai/ha, scale 0 to 100
[18] = Preemergence, 31 g ai/ha, scale of 0 to 100, 0 is no effect, 100 is complete control
[19] = Preemergence, 125 g ai/ha, scale 0 to 100, 0 no effect, 100 complete control
[20] = Preemergence, 250 g ai/ha, scale 0 to 100, 0 no effect, 100 complete control
[21] = Preemergence, 62 g ai/ha, scale of 0 to 100, 0 is no effect, 100 is complete control

Cc1nn(-c2ccc(F)cc2)nc1Cc1ccnc(C(F)(F)F)c1 [Compound 16, 4-[[2-(4-fluorophenyl)-5-methyl-2H-1,2,3-triazol-4-yl]methyl]-2-(trifluoromethyl)pyridine] showed a pest or weed control at 125 g/ha ([1]; post-emergence, Postemergence, 0 to 100 scale, 0 is no effect, 100 is complete control, read-out: Foxtail, Giant plant response rating) of 90%, a pest or weed control at 500 g/ha ([1]; post-emergence, Postemergence, visual rating on 0 to 100 scale (0 no effect, 100 complete control), approximately ten days, read-out: Foxtail, Giant plant response rating) of 90% and a pest or weed control at 125 g/ha ([1]; pre-emergence, Preemergence, 0 to 100 scale (0 no effect, 100 complete control), read-out: Plant response rating, Foxtail, Giant) of 100%. It also gave a pest or weed control at 500 g/ha ([1]; pre-emergence, Preemergence, 0 to 100 scale, 0 is no effect, 100 is complete control, read-out: Plant response rating, Foxtail, Giant) of 100%, a pest or weed control at 125 g/ha ([2]; post-emergence, Postemergence, 0 to 100 scale, 0 is no effect, 100 is complete control, read-out: Velvetleaf plant response rating) of 100% and a pest or weed control at 500 g/ha ([2]; post-emergence, Postemergence, visual rating on 0 to 100 scale (0 no effect, 100 complete control), approximately ten days, read-out: Velvetleaf plant response rating) of 100%. For the same molecule, the pest or weed control at 125 g/ha ([2]; pre-emergence, Preemergence, 0 to 100 scale (0 no effect, 100 complete control), read-out: Plant response rating, Velvetleaf) was 30%, the pest or weed control at 500 g/ha ([2]; pre-emergence, Preemergence, 0 to 100 scale, 0 is no effect, 100 is complete control, read-out: Plant response rating, Velvetleaf) was 80% and the “Plant response rating, Lambsquarters” value [3, 11] was 95. For the same molecule, the “Plant response rating, Lambsquarters” value [3, 12] was 100, the “Plant response rating, Lambsquarters” value [3, 13] was 100 and the “Plant response rating, Lambsquarters” value ([3]; 250 g ai/ha, scale 0 to 100) was 100. For the same molecule, the “Plant response rating, Blackgrass” value [4, 14] was 10, the “Plant response rating, Blackgrass” value [4, 15] was 25 and the “Plant response rating, Blackgrass” value [4, 16] was 40. The “Plant response rating, Blackgrass” value [4, 17] was 80, the “Plant response rating, Blackgrass” value [4, 18] was 90 and the “Plant response rating, Blackgrass” value ([4]; Preemergence, 62 g ai/ha, scale 0 to 100, 0 no effect, 100 complete control) was 100. The “Plant response rating, Blackgrass” value [4, 19] was 100, the “Plant response rating, Blackgrass” value [4, 20] was 100 and the “Plant response rating, Oat, Wild” value (wild oat (Avena fatua); [14]) was 5. The “Plant response rating, Oat, Wild” value (wild oat (Avena fatua); [15]) was 10, the “Plant response rating, Oat, Wild” value (wild oat (Avena fatua); [16]) was 20 and the “Plant response rating, Oat, Wild” value (wild oat (Avena fatua); [17]) was 80. The “Plant response rating, Oat, Wild” value (wild oat (Avena fatua); [18]) was 98, the “Plant response rating, Oat, Wild” value (wild oat (Avena fatua); [21]) was 100 and the “Plant response rating, Oat, Wild” value (wild oat (Avena fatua); [19]) was 100. For the same molecule, the “Plant response rating, Oat, Wild” value (wild oat (Avena fatua); [20]) was 100, the pest or weed control at 125 g/ha ([5]; post-emergence, Postemergence, 0 to 100 scale, 0 is no effect, 100 is complete control, read-out: Pigweed plant response rating) was 100% and the pest or weed control at 500 g/ha ([5]; post-emergence, Postemergence, visual rating on 0 to 100 scale (0 no effect, 100 complete control), approximately ten days, read-out: Pigweed plant response rating) was 100%. For the same molecule, the pest or weed control at 125 g/ha ([5]; pre-emergence, Preemergence, 0 to 100 scale (0 no effect, 100 complete control), read-out: Plant response rating, Pigweed) was 90%, the pest or weed control at 500 g/ha ([5]; pre-emergence, Preemergence, 0 to 100 scale, 0 is no effect, 100 is complete control, read-out: Plant response rating, Pigweed) was 100% and the pest or weed control at 125 g/ha ([6]; post-emergence, Postemergence, 0 to 100 scale, 0 is no effect, 100 is complete control, read-out: Barnyardgrass plant response rating) was 90%. It also gave a pest or weed control at 500 g/ha ([6]; post-emergence, Postemergence, visual rating on 0 to 100 scale (0 no effect, 100 complete control), approximately ten days, read-out: Barnyardgrass plant response rating) of 100%, a pest or weed control at 125 g/ha ([6]; pre-emergence, Preemergence, 0 to 100 scale (0 no effect, 100 complete control), read-out: Plant response rating, Barnyardgrass) of 90% and a pest or weed control at 500 g/ha ([6]; pre-emergence, Preemergence, 0 to 100 scale, 0 is no effect, 100 is complete control, read-out: Plant response rating, Barnyardgrass) of 100%. For the same molecule, the “Plant response rating, Chickweed” value [7, 11] was 85, the “Plant response rating, Chickweed” value [7, 12] was 98 and the “Plant response rating, Chickweed” value [7, 13] was 100. For the same molecule, the “Plant response rating, Chickweed” value ([7]; 250 g ai/ha, scale 0 to 100) was 100, the “Plant response rating, Nutsedge, Yellow” value [8, 11] was 0 and the “Plant response rating, Nutsedge, Yellow” value [8, 12] was 0. The “Plant response rating, Nutsedge, Yellow” value [8, 13] was 0, the “Plant response rating, Nutsedge, Yellow” value ([8]; 250 g ai/ha, scale 0 to 100) was 0 and the “Plant response rating, Corn” value (corn (Zea mays); [11]) was 5. The “Plant response rating, Corn” value (corn (Zea mays); [12]) was 15, the “Plant response rating, Corn” value (corn (Zea mays); [13]) was 15 and the “Plant response rating, Corn” value (corn (Zea mays); 250 g ai/ha, scale 0 to 100) was 15. For the same molecule, the “Plant response rating, Wheat” value [9, 14] was 5, the “Plant response rating, Wheat” value [9, 15] was 20 and the “Plant response rating, Wheat” value [9, 16] was 25. The “Plant response rating, Wheat” value [9, 17] was 30, the “Plant response rating, Wheat” value [9, 18] was 0 and the “Plant response rating, Wheat” value [9, 21] was 5. For the same molecule, the “Plant response rating, Wheat” value [9, 19] was 15, the “Plant response rating, Wheat” value [9, 20] was 45 and the “Plant response rating, Morningglory” value [10, 11] was 50. The “Plant response rating, Morningglory” value [10, 12] was 75, the “Plant response rating, Morningglory” value [10, 13] was 75 and the “Plant response rating, Morningglory” value ([10]; 250 g ai/ha, scale 0 to 100) was 80.
